Test results published in patent US20250188033A1, “INHIBITOR OF REPLICATION PROTEIN A1 OF TRYPANOSOMA BRUCEI AND METHOD OF USE THEREOF” (Research Foundation of the City University of New York, published 2025).

Test system: Trypanosoma brucei
Assay: ALAMARBLUE cell viability / growth assay of T. brucei cells
Assay type: cell-based
Conditions: T. brucei, 72 hours, normalized to DMSO control
Description: To determine cell growth rate, WT and two TbRPA1 RNAi KD strains (KD1 and KD2) were seeded at a density of 1×10^5 cells/ml and cultured with or without tetracycline for the induction of RNAi. Cells were counted every 12 hours for 2 days. To determine the viability of TbRPA1-depleted cells, ALAMARBLUE® assay (Thermo Fisher, an established colorimetric technique that detects metabolically active cells) was used. Cells from each time point were incubated with ALAMARBLUE® dye for 4-6 hours and percentage of live cells was determined by measuring resorufin converted from resazurin by reducing environment of live cells. Synergy H1 microplate reader (BioTek) was used with 560/590 nm (excitation/emission) filter settings and Relative Fluorescence Unit (RFU) values were obtained. The percentage of viable cells were calculated from the RFU values.
The initial assessment of JC-229's inhibitory effect on T. brucei cell growth was performed at 50 μM concentration. Trypanosome cells were seeded at 1×10^3 cells/ml density in 180 μl in a 96-well culture plate in triplicate. These cells were incubated with 50 μM JC-229 for 24, 48, and 72 hours. DMSO was used as a vehicle control at 0.0075%. JC-229-treated culture and control cultures were analyzed with the ALAMARBLUE® dye as described above.
To obtain the EC50 value of JC-229, T. brucei cells were seeded at 1×10^3 cells/ml density in 180 μl in a 96-well culture plate in triplicate. These cells were incubated for 72 hours with increasing concentrations of JC-229, (0.5 μM to 50 μM) and cell viability was determined using the ALAMARBLUE® dye as described above.
Trypanosoma brucei cytotoxicity of JC-229 and analogs were measured using ALAMARBLUE® assay (Rampersad, S. N. Multiple applications of ALAMARBLUE® as an indicator of metabolic function and cellular health in cell viability bioassays. Sensors (Basel) 12, 12347-12360 (2012). Trypanosome cells were seeded at 1×10^3 cells/ml density in 180 μl in a 96-well culture plate in triplicate. These cells were incubated with indicated concentration of JC compounds for 72 hours. DMSO was used as a vehicle control at 0.0075%. JC compound-treated cultures were then incubated with ALAMARBLUE® dye for 4-6 hours and percentage of live cells was determined using Synergy H1 microplate reader (BioTek) with 560/590 nm (excitation/emission) filter settings and Relative Fluorescence Unit (RFU) values were obtained. The percentage of viable cells were calculated from the RFU values by normalizing to DMSO treated control. In one embodiment, the inhibitor is characterized in that it provides at least 50%, at least 80% or at least 90% inhibition at a concentration of 5 μM when tested in accordance with the above conditions.

Row | Structure (SMILES) | % Inhibition @2 μM [%] | % Inhibition @5 μM [%] | % Inhibition @10 μM [%]
1 | Cc1ccc(C(=O)Nc2ccc(Cl)c(Cl)c2)cc1S(=O)(=O)N1CCC(NS(=O)(=O)c2ccc(Br)cc2)CC1 [JC-1014] | 100 | 100 | 
2 | Cc1ccc(C(=O)Nc2cc(C(F)(F)F)n[nH]2)cc1S(=O)(=O)Nc1ccc(Cl)c(Cl)c1 [JC-866] | −15 |  | 23
3 | Cc1ccc(C(=O)Nc2ccc(Cl)c(Cl)c2)cc1S(=O)(=O)NCCOCCO [JC-890] | 4 |  | 37
4 | Cc1ccc(C(=O)Nc2ccc(Cl)c(Cl)c2)cc1S(=O)(=O)NCCN.O=C(O)C(F)(F)F [JC-918] | −20 |  | 56
5 | Cc1ccc(C(=O)Nc2ccc(Cl)c(Cl)c2)cc1S(=O)(=O)NCCNC(=S)Nc1cccc(C(F)(F)F)c1 [JC-1000] | 21 | 58 | 
6 | Cc1ccc(C(=O)Nc2ccc(Cl)c(Cl)c2)cc1S(=O)(=O)N1CCCC(NC(=S)Nc2ccc(F)cc2)C1 (stereo not drawn) [JC-965] | 64 | 100 | 
7 | Cc1ccc(C(=O)Nc2ccc(Cl)c(Cl)c2)cc1S(=O)(=O)NNc1ccccc1 [JC-868] | 1 |  | 20
8 | Cc1ccc(C(=O)Nc2ccc(Cl)c(Cl)c2)cc1S(=O)(=O)NCc1nc2c(F)c(F)ccc2[nH]1.O=C(O)C(F)(F)F [JC-903] | 11 |  | 37
9 | Cc1ccc(C(=O)Nc2ccc(Cl)c(Cl)c2)cc1S(=O)(=O)C1CCCC(N)C1 (stereo not drawn) [JC-955] | 25 | 100 | 
10 | Cc1ccc(C(=O)Nc2ccc(Cl)c(Cl)c2)cc1S(=O)(=O)N1CCC(NS(=O)(=O)c2ccc(CBr)cc2)CC1 [JC-1009] | 99 | 100 | 
11 | Cc1ccc(C(=O)Nc2ccc(Cl)c(Cl)c2)cc1S(=O)(=O)NCCCNC(=O)Cc1ccccc1 [JC-934] | 11 |  | 34
12 | Cc1ccc(C(=O)Nc2ccc(Cl)c(Cl)c2)cc1S(=O)(=O)C1CCCC(NC(=O)OC(C)(C)C)C1 (stereo not drawn) [JC-954] | 10 | 35 | 
13 | Cc1ccc(C(=O)Nc2ccc(Cl)c(Cl)c2)cc1S(=O)(=O)Nc1cnc2ccccc2c1 [JC-914] | −7 |  | −3
14 | Cc1ccc(C(=O)Nc2ccc(Cl)c(Cl)c2)cc1S(=O)(=O)N1CCCC(NC(=O)OC(C)(C)C)C1 (stereo not drawn) [JC-928] | 15 | 99.6 | 100
15 | Cc1ccc(C(=O)Nc2ccc(Cl)c(Cl)c2)cc1S(=O)(=O)NCc1ccccc1 [JC-857] | −5 |  | 14
16 | Cc1ccc(C(=O)Nc2ccc(Cl)c(Cl)c2)cc1S(=O)(=O)NCCNC(=S)Nc1ccc(C(F)(F)F)cc1 [JC-1003] | 0 | 80 | 
17 | Cc1ccc(C(=O)Nc2ccc(Cl)c(Cl)c2)cc1S(=O)(=O)NCCNS(=O)(=O)c1ccc(Br)cc1C(F)(F)F [JC-995] | −34 | 93 | 
18 | Cc1ccc(C(=O)Nc2ccc(Cl)c(Cl)c2)cc1S(=O)(=O)NCCCNS(=O)(=O)c1ccc(Br)cc1 [JC-998] | 0 | 100 | 

Row | Structure (SMILES) | % Inhibition @2 μM [%] | % Inhibition @5 μM [%] | % Inhibition @10 μM [%]
19 | Cc1ccc(C(=O)N2CCOCC2)cc1S(=O)(=O)Nc1ccc(Cl)c(Cl)c1 [JC-867] | −14 |  | 31
20 | O=C(Nc1ccc(Cl)c(Cl)c1)c1ccc(Br)c(S(=O)(=O)Nc2ccc(Cl)c(Cl)c2)c1 [JC-855] | −5 |  | 89
21 | Cc1ccc(C(=O)Nc2ccc(Cl)c(Cl)c2)cc1S(=O)(=O)Nc1nc2ccccc2[nH]1 [JC-873] | −4 | 1 | 100
22 | Cc1ccc(C(=O)Nc2ccc(Cl)c(Cl)c2)cc1S(=O)(=O)NCCCNC(=S)Nc1ccc(F)cc1 [JC-1015] | 11 | 100 | 
23 | Cc1ccc(C(=O)Nc2ccc(Cl)c(Cl)c2)cc1S(=O)(=O)Nc1ccc([N+](=O)[O-])cc1N [JC-892] | 13 |  | 1
24 | Cc1ccc(C(=O)Nc2ccc(Cl)c(Cl)c2)cc1S(=O)(=O)N1CCCC(NC(=S)Nc2cccc(C(F)(F)F)c2)C1 (stereo not drawn) [JC-1005] | 100 | 100 | 
25 | Cc1ccc(C(=O)Nc2ccc(Cl)c(Cl)c2)cc1S(=O)(=O)N1CCC(NC(=S)Nc2ccc(C(F)(F)F)cc2)CC1 [JC-1020] | 100 | 100 | 
26 | Cc1ccc(S(=O)(=O)Nc2ccc(Cl)c(Cl)c2)cc1C(=O)Nc1ccc(Cl)c(Cl)c1 [JC-858] | 13 | 86 | 100
27 | Cc1ccc(C(=O)Nc2ccc(Cl)c(Cl)c2)cc1S(=O)(=O)C1CCCN(C(=O)OC(C)(C)C)C1 (stereo not drawn) [Jc-950] | 28 | 3 | 
28 | Cc1ccc(C(=O)Nc2nc3ccccc3[nH]2)cc1S(=O)(=O)Nc1ccc(Cl)c(Cl)c1 [JC-865] | −1 |  | 55
29 | Cc1ccc(C(=O)Nc2ccc(Cl)c(Cl)c2)cc1S(=O)(=O)N1CCC(NS(=O)(=O)c2ccc(Br)cc2C(F)(F)F)CC1 [JC-1011] | 63 | 101 | 
30 | Cc1ccc(C(=O)NCCc2ccccc2)cc1S(=O)(=O)Nc1ccc(Cl)c(Cl)c1 [JC-859] | 13 |  | 9
31 | Cc1ccc(C(=O)N[C@@H](Cc2ccccc2)C(N)=O)cc1S(=O)(=O)Nc1ccc(Cl)c(Cl)c1 [JC-862] | −19 |  | 27
32 | Cc1ccc(C(=O)Nc2ccc(Cl)c(Cl)c2)cc1S(=O)(=O)NCCCc1ccccc1 [JC-908] | 18 |  | 62
33 | Cc1ccc(C(=O)NCc2ccccc2)cc1S(=O)(=O)Nc1ccc(Cl)c(Cl)c1 [JC-856] | −7 |  | 22
34 | Cc1ccc(C(=O)Nc2ccc(Cl)c(Cl)c2)cc1S(=O)(=O)NCCN(C)C [JC-871] | −3 |  | 79
35 | O=C(Nc1ccc(Cl)c(Cl)c1)c1ccc(Cl)c(S(=O)(=O)Nc2ccc(Cl)c(Cl)c2)c1 [JC-853] | −17 |  | 81
36 | Cc1ccc(C(=O)Nc2ccc(Cl)c(Cl)c2)cc1S(=O)(=O)NCCNS(=O)(=O)c1cccc(F)c1 [JC-996] | −19 | 69 | 
